Laboratory results reported in patent publication US8859621B2, “Pharmaceutical formulations of modafinil” (Cephalon, Inc., priority 2002, dated 2014).

Tests used:
[1] = tested on: children with moderate to severe ADHD; test: Example 1: 4-week placebo-controlled study of modafinil in children with ADHD; type: in vivo, human; details: for ADHD symptoms, primary outcome measure (teacher rated ADHD Rating Scale-IV): vs placebo
Protocol: A group of 248 children (average age: 9 years, average weight: 35.5 kilograms) were studied to determine the effect of modafinil on ADHD.
After a 1 week washout period, children with moderate to severe ADHD received 4 weeks of treatment with placebo or modafinil in split morning/midday dosages of 100/200 mg, 200/100 mg, a single 300 mg dose, and 200/200 mg (400 mg total). Randomization called for equal distribution of the children by weight, except for the 200/200 mg dose group, which contained only children having a weight greater than or equal to 30 kg. The primary efficacy measure was the teacher rated ADHD Rating Scale-IV.

ADHD patients = test: Example 2: 2-week fixed-dose study of 340 mg and 425 mg in children with ADHD; type: in vivo, human; details: 340 mg (<30 kg) or 425 mg (>=30 kg) single dose per day, 2 weeks, baseline score 46.3
Protocol: Safety and efficacy of the fixed doses of 340-mg and 425-mg were evaluated following a 2-week dosing period (1-week of titration and 1-week at steady state). The 340-mg dose was administered to children weighing <30 kg, and the 425-mg dose was administered to children weighing ≧30 kg.
The 24 children enrolled in this study were predominately male (17M:7F) and predominately white (13W:9B:2Other). The average age (9.0 yrs), weight (32.9 kg) and height (133.7 cm) were similar to those seen in previous ADHD trials in children. The children <30 and ≧30 kg were approximately equaled divided. The average Attention Deficit Hyperactivity Disorder Rating Scale (ADHD-RS) total score at baseline was 46.3.

[2] = human blood plasma concentration curve of modafinil; type: in vivo
Protocol: FIG. 1 represents a human blood plasma concentration curve of modafinil after an initial dose of 100 mg of modafinil followed 4 hours later by a 200 mg dose of modafinil.
FIG. 2 represents a human blood plasma concentration curve of modafinil after an initial dose of 200 mg of modafinil followed 4 hours later by a 100 mg dose of modafinil.
FIG. 3 represents a human blood plasma concentration curve of modafinil after a single dose of 300 mg of modafinil.
FIG. 4 represents a human blood plasma concentration curve of modafinil after a single dose of 100 mg of modafinil.

With `NC(=O)C[S+]([O-])C(c1ccccc1)c1ccccc1` (centres unmarked) [modafinil, 2-[(diphenylmethyl)sulfinyl]acetamide] the adverse event profile ([1]; 400 mg of modafinil (200/200 mg) vs the other doses) was “higher adverse event profile than the other doses”, the safety and tolerability ([1]; children, 4 weeks of treatment, 300 to 400 mg total daily) was “safe and generally well tolerated” and the “ADHD symptoms, primary outcome measure (teacher rated ADHD Rating Scale-IV)” value ([1]; children, single 300 mg once daily dose, 4 weeks of treatment) was “significantly improved ADHD symptoms”. The “ADHD symptoms, primary outcome measure (teacher rated ADHD Rating Scale-IV)” value ([1]; children, split morning/midday dose 200/100 mg, 4 weeks of treatment) was “significantly improved ADHD symptoms”, the “improvement of ADHD-RS total score from baseline” value (ADHD patients) was roughly 70% and the “blood concentrations of modafinil, amount less than predicted” value ([2]; single dose of 300 mg vs extrapolation of 100 mg unit dose data, FIG. 3) was 20-30%. For the same compound, the “time post administration at which the blood level of modafinil begins to decrease” value ([2]; single dose of 300 mg, FIG. 3) was “about 2 hours” and the “time post administration at which the blood plasma concentration of modafinil begins to decrease” value ([2]; split dose 100 mg then 200 mg or 200 mg then 100 mg 4 hours later, FIGS. 1 and 2) was “about two”.
